Test results taken from PubChem BioAssay AID330 (DTP/NCI, 2004).
Inconclusive results and toxic doses are left out. The calls were made as follows: active = survival T/C of 150% or more; inactive = T/C below 125% in these data.

System: P388 leukemia ip, CD2F1 mice, survival T/C
Experiment: NCI In Vivo Anticancer Drug Screen. Data for tumor model P388 Leukemia (intraperitoneal) in CD2F1 (CDF1) mice
Conditions: endpoint: median survival time, higher = longer survival
Summary of the method: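 Mice carrying the transplanted tumor received test compound or vehicle. Survival was recorded in each group, and the value is the treated-group measurement divided by that of the vehicle-treated control group.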

[1] = dose: 60.0 mg/kg/injection, schedule: Q01DX005 (ip), vehicle: saline with Tween-80
[2] = dose: 120.0 mg/kg/injection, schedule: Q01DX005 (ip), vehicle: saline with Tween-80
[3] = dose: 240.0 mg/kg/injection, schedule: Q01DX005 (ip), vehicle: saline with Tween-80
[4] = dose: 50.0 mg/kg/injection, schedule: Q01DX005 (ip), vehicle: saline with Tween-80
[5] = dose: 100.0 mg/kg/injection, schedule: Q01DX005 (ip), vehicle: saline with Tween-80
[6] = dose: 200.0 mg/kg/injection, schedule: Q01DX005 (ip), vehicle: saline with Tween-80
[7] = dose: 100.0 mg/kg/injection, schedule: Q01DX001 (ip), vehicle: Klucel (hydroxypropylcellulose) (HPC)
[8] = dose: 200.0 mg/kg/injection, schedule: Q01DX001 (ip), vehicle: Klucel (hydroxypropylcellulose) (HPC)
[9] = dose: 100.0 mg/kg/injection, schedule: Q04DX003 (ip), vehicle: Klucel (hydroxypropylcellulose) (HPC)
[10] = dose: 200.0 mg/kg/injection, schedule: Q04DX003 (ip), vehicle: Klucel (hydroxypropylcellulose) (HPC)
[11] = dose: 400.0 mg/kg/injection, schedule: Q04DX003 (ip), vehicle: Klucel (hydroxypropylcellulose) (HPC)

Measured: T/C

NC(=O)COC1OC(CO)C(O)C(O)C1O (configuration not stated)
inactive: dose: 50.0 mg/kg/injection, schedule: Q01DX005 (ip), vehicle: Klucel (hydroxypropylcellulose) (HPC) 97 % of control | dose: 100.0 mg/kg/injection, schedule: Q01DX005 (ip), vehicle: Klucel (hydroxypropylcellulose) (HPC) 100 % of control | dose: 200.0 mg/kg/injection, schedule: Q01DX005 (ip), vehicle: Klucel (hydroxypropylcellulose) (HPC) 107 % of control

CC(C)=CCCC(C)(OC1OC(COC2OC(CO)C(O)C2O)C(O)C(O)C1O)C1CCC2(C)C1C(O)CC1C3(C)CCC(OC4OC(CO)C(O)C(O)C4OC4OC(CO)C(O)C(O)C4O)C(C)(C)C3CCC12C (configuration not stated)
inactive: dose: 2.0 mg/kg/injection, schedule: Q01DX009 (ip), vehicle: Klucel (hydroxypropylcellulose) (HPC) 88 % of control | dose: 4.0 mg/kg/injection, schedule: Q01DX009 (ip), vehicle: Klucel (hydroxypropylcellulose) (HPC) 95 % of control | dose: 8.0 mg/kg/injection, schedule: Q01DX009 (ip), vehicle: Klucel (hydroxypropylcellulose) (HPC) 104 % of control | dose: 16.0 mg/kg/injection, schedule: Q01DX009 (ip), vehicle: Klucel (hydroxypropylcellulose) (HPC) 114 % of control | dose: 32.0 mg/kg/injection, schedule: Q01DX009 (ip), vehicle: Klucel (hydroxypropylcellulose) (HPC) 98 % of control

O=C1CC(=O)NP(=O)(Oc2ccccc2)N1
inactive: dose: 100.0 mg/kg/injection, schedule: Q04DX002 (ip), vehicle: saline 103 % of control | dose: 200.0 mg/kg/injection, schedule: Q04DX002 (ip), vehicle: saline 100 % of control

CCc1cc2nc3c(=O)[nH]c(=O)nc-3n(CCN(CCO)CCO)c2cc1CC
inactive: [1] 99 % of control | [2] 116 % of control | [3] 108 % of control

Cc1cc(=O)n(-c2ccc(S(N)(=O)=O)cc2)c(C)c1C(=O)O
inactive: [4] 98 % of control | [5] 96 % of control | [6] 103 % of control

CCOC(=O)c1nc(C(Br)(Br)Br)[nH]c(=O)c1C
inactive: dose: 6.25 mg/kg/injection, schedule: Q01DX009 (ip), vehicle: distilled water + Tween-80 102 % of control | dose: 12.5 mg/kg/injection, schedule: Q01DX009 (ip), vehicle: distilled water + Tween-80 113 % of control | dose: 25.0 mg/kg/injection, schedule: Q01DX009 (ip), vehicle: distilled water + Tween-80 116 % of control | dose: 50.0 mg/kg/injection, schedule: Q01DX009 (ip), vehicle: distilled water + Tween-80 113 % of control | dose: 100.0 mg/kg/injection, schedule: Q01DX009 (ip), vehicle: distilled water + Tween-80 113 % of control

CCCCNc1ccc(-c2c(N)nc(N)nc2CC)cc1N
inactive: [7] 101 % of control | [8] 93 % of control | dose: 400.0 mg/kg/injection, schedule: Q01DX001 (ip), vehicle: Klucel (hydroxypropylcellulose) (HPC) 94 % of control

O=[N+]([O-])c1cccc2nc(-c3ccccn3)n(CCc3ccncc3)c12
inactive: dose: 50.0 mg/kg/injection, schedule: Q01DX001 (ip), vehicle: Klucel (hydroxypropylcellulose) (HPC) 104 % of control | [7] 104 % of control | [8] 101 % of control

Fc1ccc(NC(=S)SCc2ccc(Cl)cc2)c(F)c1
inactive: dose: 50.0 mg/kg/injection, schedule: Q01DX009 (ip), vehicle: suspension in saline 93 % of control | dose: 100.0 mg/kg/injection, schedule: Q01DX009 (ip), vehicle: suspension in saline 100 % of control | dose: 200.0 mg/kg/injection, schedule: Q01DX009 (ip), vehicle: suspension in saline 100 % of control

COc1cc2cnc3c4cc(OC)c(OC)cc4c(O)cc3c2cc1OC
inactive: dose: 3.12 mg/kg/injection, schedule: Q01DX005 (ip), vehicle: Klucel (hydroxypropylcellulose) (HPC) 98 % of control | dose: 6.25 mg/kg/injection, schedule: Q01DX005 (ip), vehicle: Klucel (hydroxypropylcellulose) (HPC) 106 % of control | dose: 12.5 mg/kg/injection, schedule: Q01DX005 (ip), vehicle: Klucel (hydroxypropylcellulose) (HPC) 98 % of control

COC(=O)C1=C(C)NC(C)=C(C(=O)OC)C1c1cc2ccccc2n2nnnc12
inactive: [1] 95 % of control | [2] 98 % of control | [3] 88 % of control

C[n+]1ccc(C#N)c2ccccc21
inactive: dose: 3.75 mg/kg/injection, schedule: Q01DX009 (ip), vehicle: saline with Tween-80 95 % of control | dose: 7.5 mg/kg/injection, schedule: Q01DX009 (ip), vehicle: saline with Tween-80 109 % of control | dose: 15.0 mg/kg/injection, schedule: Q01DX009 (ip), vehicle: saline with Tween-80 118 % of control

O=c1[nH]c2ccccc2nc1N=Nc1ccccc1
inactive: [4] 96 % of control | [5] 96 % of control

FC(F)(F)C1(C(F)(F)F)OS2(OC(C(F)(F)F)(C(F)(F)F)c3ccccc32)c2ccccc21
inactive: [9] 91 % of control | [10] 91 % of control | [11] 92 % of control

CCC1(O)C[C@@]2(CCCCC2I)OC1=O (some centres not stated)
inactive: [4] 100 % of control | [5] 103 % of control | [6] 106 % of control

CCOc1c(N=Nc2cccc(Cl)c2)c(C)nn1C(N)=S
inactive: dose: 60.0 mg/kg/injection, schedule: Q01DX005 (ip), vehicle: Klucel + Tween-80 102 % of control | dose: 120.0 mg/kg/injection, schedule: Q01DX005 (ip), vehicle: Klucel + Tween-80 93 % of control | dose: 240.0 mg/kg/injection, schedule: Q01DX005 (ip), vehicle: Klucel + Tween-80 95 % of control

O=C(S)CC(O)(c1ccccc1)c1ccccc1
inactive: [9] 105 % of control | [10] 105 % of control | [11] 101 % of control

CC(=O)OCC1OC(n2cnc3c2N=CN2C(CCl)=CC(=O)NC32)C(OC(C)=O)C1OC(C)=O (configuration not stated)
inactive: dose: 100.0 mg/kg/injection, schedule: Q01DX001 (ip), vehicle: saline with Tween-80 103 % of control | dose: 200.0 mg/kg/injection, schedule: Q01DX001 (ip), vehicle: saline with Tween-80 103 % of control | dose: 400.0 mg/kg/injection, schedule: Q01DX001 (ip), vehicle: saline with Tween-80 110 % of control

O=C(NC1COB(c2ccccc2)OC1c1ccc([N+](=O)[O-])cc1)C(Cl)Cl (configuration not stated)
inactive: dose: 60.0 mg/kg/injection, schedule: Q01DX005 (ip), vehicle: Klucel (hydroxypropylcellulose) (HPC) 97 % of control | dose: 120.0 mg/kg/injection, schedule: Q01DX005 (ip), vehicle: Klucel (hydroxypropylcellulose) (HPC) 97 % of control | dose: 240.0 mg/kg/injection, schedule: Q01DX005 (ip), vehicle: Klucel (hydroxypropylcellulose) (HPC) 99 % of control

O=C(CCc1ccccc1)OC/C=C/COC(=O)c1ccccc1
inactive: dose: 50.0 mg/kg/injection, schedule: Q01DX009 (ip), vehicle: Klucel (hydroxypropylcellulose) (HPC) 102 % of control | dose: 100.0 mg/kg/injection, schedule: Q01DX009 (ip), vehicle: Klucel (hydroxypropylcellulose) (HPC) 111 % of control | dose: 200.0 mg/kg/injection, schedule: Q01DX009 (ip), vehicle: Klucel (hydroxypropylcellulose) (HPC) 106 % of control

CC(=O)O[C@]12C=C[C@H](O1)[C@@H]1C(=O)NC(=O)[C@@H]12
inactive: dose: 6.25 mg/kg/injection, schedule: Q04DX002 (ip), vehicle: saline 98 % of control | dose: 12.5 mg/kg/injection, schedule: Q04DX002 (ip), vehicle: saline 106 % of control | dose: 25.0 mg/kg/injection, schedule: Q04DX002 (ip), vehicle: saline 88 % of control

COC(=O)C1CCOCCCOCCCOCCCOCCCOCCCC1=O (configuration not stated)
inactive: [4] 100 % of control | [5] 105 % of control | [6] 100 % of control

CCCCCCCCN1C(=O)c2ccccc2C1=O
inactive: dose: 25.0 mg/kg/injection, schedule: Q01DX009 (ip), vehicle: other 109 % of control | dose: 50.0 mg/kg/injection, schedule: Q01DX009 (ip), vehicle: other 103 % of control | dose: 100.0 mg/kg/injection, schedule: Q01DX009 (ip), vehicle: other 109 % of control | dose: 200.0 mg/kg/injection, schedule: Q01DX009 (ip), vehicle: other 98 % of control
